Patent publication US4008323A, “Method of reducing cholesterol using certain aromatic keto acids” (Pierre Fabre S.A., priority 1974, dated 1977)
Like-named read-outs stand apart in the source and are kept apart here.

Assays:
Solubility properties = type: physicochemical
[1] = Acute toxicity in mice, oral LD50 (method of Miller & Tainter); details: mouse, in vivo, mortality determined 48 hours after administration
Procedure: The chemical compounds previously described were submitted to toxicity tests. It was determined in mice by oral administration and was calculated in accordance with the method of MILLER & TAINTER. It is generally low and greater than 1000 mg/kg.

carrageenin edema = assay: Carrageenin edema test in rats (antiinflammatory); type: in vivo; details: for change in vivo at 30 mg/kg / change in vivo at 50 mg/kg / change in vivo at 100 mg/kg / change in vivo at 200 mg/kg: Rattus norvegicus
Procedure: The antiinflammatory properties were shown by the carrageenin edema test in rats, the products having been administered orally 1 hour before the intrapodal injection of 0.05 ml of a 2% suspension of carrageenin; the volume of the rat's paw was measured by plethysmoscopy 3, 4 and 6 hours afterwards.
The experiment concerned for each lot […]; one lot of animals receiving only the vehicle (2 ml/100 g of Tween + water) which served for the administration of the products, constituted the control lot. The following table sets forth the results obtained: […]

[2] = test system: writhings induced by acetic acid; assay: Writhing test, acetic acid (analgetic); type: in vivo, male mouse; details: 200 mg/kg by mouth, t + 60 to t + 70 min
Procedure: The administration of the compounds is effected by mouth at the time t. […] The determination of the writhings is effected from t + 60 min. to t + 70 min. The vehicle used for the administration of the products is a 5% solution of Tween 80 in 0.9% NaCl which will serve as control.

total blood cholesterol = assay: Total blood cholesterol in rats on a normal diet (hypocholesterolemizing); type: in vivo; details: 300 mg/kg oral, 4 consecutive days; 5th day, fasted 16 hours
Procedure: One lot of rats served as control.
The sampling was effected on the 5th day after 16 hours fasting, by cardiac puncture and the total blood cholesterol determination was effected by the Liebermann-Burchardt colorimetric method.

## C=C(CC(=O)c1ccc(-c2ccccc2Cl)cc1)C(=O)O [F 1379, 2-methylene 4-oxo 4-(4'-orthochlorophenylphenyl) butyric acid]
Solubility properties; dimethyl acetamide
  Solubility in NN-dimethyl acetamide: 25%
Solubility properties; dimethyl sulfoxide
  Solubility in dimethyl sulfoxide: 20%
Solubility properties; ethyl alcohol / ethanol / alcohol
  Solubility in ethyl alcohol: 1%
Solubility properties; water, in words, listed as Example 6
  Solubility in water: insoluble
[1]
  LD50 at 48 h: 1500 mg/kg
Carrageenin edema; 30 mg/kg oral
  % increase in volume of the paw, cumulative (m): 179,6%
  Action, cumulative: -11,7%
Carrageenin edema; 50 mg/kg oral
  % increase in volume of the paw, cumulative (m): 106,1%
  Action, cumulative: -44,4%
Carrageenin edema; 100 mg/kg oral
  % increase in volume of the paw, cumulative (m): 83,6%
  Action, cumulative: -56,2%
Carrageenin edema; 200 mg/kg oral
  % increase in volume of the paw, cumulative (m): 77,5%
  Action, cumulative: -59,4%
Carrageenin edema; 30 mg/kg oral, + 3 hrs, read-out: % increase in volume of the paw, mean (m)
  change in vivo at 30 mg/kg: 58.4%
Carrageenin edema; 30 mg/kg oral, + 3 hrs, read-out: Action (variation of paw volume increase vs controls)
  change in vivo at 30 mg/kg: -17.6%
Carrageenin edema; 30 mg/kg oral, + 4 hrs, read-out: % increase in volume of the paw, mean (m)
  change in vivo at 30 mg/kg: 60.1%
Carrageenin edema; 30 mg/kg oral, + 4 hrs, read-out: Action (variation of paw volume increase vs controls)
  change in vivo at 30 mg/kg: -9.6%
Carrageenin edema; 30 mg/kg oral, + 6 hrs, read-out: % increase in volume of the paw, mean (m)
  change in vivo at 30 mg/kg: 61.1%
Carrageenin edema; 30 mg/kg oral, + 6 hrs, read-out: Action (variation of paw volume increase vs controls)
  change in vivo at 30 mg/kg: -7%
Carrageenin edema; 50 mg/kg oral, + 3 hrs, read-out: % increase in volume of the paw, mean (m)
  change in vivo at 50 mg/kg: 24.4%
Carrageenin edema; 50 mg/kg oral, + 3 hrs, read-out: Action (variation of paw volume increase vs controls)
  change in vivo at 50 mg/kg: -58.2%
Carrageenin edema; 50 mg/kg oral, + 4 hrs, read-out: % increase in volume of the paw, mean (m)
  change in vivo at 50 mg/kg: 34.4%
Carrageenin edema; 50 mg/kg oral, + 4 hrs, read-out: Action (variation of paw volume increase vs controls)
  change in vivo at 50 mg/kg: -47%
Carrageenin edema; 50 mg/kg oral, + 6 hrs, read-out: % increase in volume of the paw, mean (m)
  change in vivo at 50 mg/kg: 47.4%
Carrageenin edema; 50 mg/kg oral, + 6 hrs, read-out: Action (variation of paw volume increase vs controls)
  change in vivo at 50 mg/kg: -29.7%
Carrageenin edema; 100 mg/kg oral, + 3 hrs, read-out: % increase in volume of the paw, mean (m)
  change in vivo at 100 mg/kg: 18.7%
Carrageenin edema; 100 mg/kg oral, + 3 hrs, read-out: Action (variation of paw volume increase vs controls)
  change in vivo at 100 mg/kg: -67.9%
Carrageenin edema; 100 mg/kg oral, + 4 hrs, read-out: % increase in volume of the paw, mean (m)
  change in vivo at 100 mg/kg: 26.1%
Carrageenin edema; 100 mg/kg oral, + 4 hrs, read-out: Action (variation of paw volume increase vs controls)
  change in vivo at 100 mg/kg: -59.9%
Carrageenin edema; 100 mg/kg oral, + 6 hrs, read-out: % increase in volume of the paw, mean (m)
  change in vivo at 100 mg/kg: 38.8%
Carrageenin edema; 100 mg/kg oral, + 6 hrs, read-out: Action (variation of paw volume increase vs controls)
  change in vivo at 100 mg/kg: -42.5%
Carrageenin edema; 200 mg/kg oral, + 3 hrs, read-out: % increase in volume of the paw, mean (m)
  change in vivo at 200 mg/kg: 19.6%
Carrageenin edema; 200 mg/kg oral, + 3 hrs, read-out: Action (variation of paw volume increase vs controls)
  change in vivo at 200 mg/kg: -66.4%
Carrageenin edema; 200 mg/kg oral, + 4 hrs, read-out: % increase in volume of the paw, mean (m)
  change in vivo at 200 mg/kg: 25.1%
Carrageenin edema; 200 mg/kg oral, + 4 hrs, read-out: Action (variation of paw volume increase vs controls)
  change in vivo at 200 mg/kg: -61.3%
Carrageenin edema; 200 mg/kg oral, + 6 hrs, read-out: % increase in volume of the paw, mean (m)
  change in vivo at 200 mg/kg: 32.8%
Carrageenin edema; 200 mg/kg oral, + 6 hrs, read-out: Action (variation of paw volume increase vs controls)
  change in vivo at 200 mg/kg: -51.3%
[2]
  % Decrease (of writhings): 18,4%
  Mean No. of Writhings: 31,8
Total blood cholesterol
  Total blood cholesterol, M: 0,62
